Experimental data published in patent publication US20040029965A1, “Formulations for reducing or eliminating toxicity of enviromental hormones containing ursodeoxycholic acid” (priority 2000, published 2004).

Key:
C57B1/6J mice [1] = test: Organ weights (liver, kidneys, testes, epididymides) of mice after a single subcutaneous injection of TCDD; assay type: in vivo
Protocol: (§1) Male C57B1/6J mice of 5 weeks old having the average weight of 18-22 g which had been bred in CRJ (Charles River in Japan) were purchased and used in this example as experimental animals. Those mice were acclimated under the constant breeding condition, i.e. the temperature of 24±1° C., the humidity of 60±10% and the light and darkness cycle of 12 hours, for one week and thereafter, utilized in the experiment.
(§2) 2,3,7,8-tetrachlorodibenzo-p-dioxin (TCDD) dissolved in toluene (purity of 95% or more as a result of gas chromatography analysis), manufactured by Chem. Services Inc. in USA, was volatilized with nitrogen to obtain powder. The obtained powder was dissolved in a mixed solvent containing acetone and corn oil with a volume ratio of 1:6. The resulting solution each containing 110, 27.5 and 6.9 μg/kg of TCDD was subcutaneously injected to mice at a volume of 5 ml per body weight. […] The mice were supplied with the feed from 10 days before (pre-administration) to 60 days after administration of TCDD (post-administration).
Upon completion of the experiment for 60 days, the experimental animals were fasted for 24 hours and anesthetized with ether. Then, they were abdominally incised and blood was gathered from abdominal vena cava. They were sacrificed by the release of blood. Liver, kidneys, testes and epididymides were extracted and all the extracted organs were weighed. Only the testes were separately kept and observed under optical and electron microscopes. For biochemical finding test, serum was separated from blood with a centrifuge and the separated serum was analyzed with an automated blood biochemical analyzer, Dimension (Dupont, USA). Blood was put to another blood gathering bottle and then, analyzed with an automated blood cell analyzer, Celldyn (Abbott, USA).
(§3) The results are expressed as Mean±Standard Deviation values. For statistical analysis of the body weight, feed and water uptake, biochemical findings, hematological findings and the weight of organ in an acute toxicity test, verification was performed by one way analysis of variance (ANOVA) in case of equal distribution. In case significance was recognized in ANOVA, the Student's t-test was performed in the levels of p<0.05 and p<0.01.
The organs, i.e. liver, kidneys, testes and epididymides, were weighed and the results are shown in the following.

C57B1/6J mice [2] = test: Water uptake of mice after a single subcutaneous injection of TCDD; assay type: in vivo; parameters: unit not given here
Protocol: as §1
The Experimental animals were supplied with Purina powdered feed (purchased from Hae Eun Trade) and supplied with water ad libitum. All the animals were weighed twice a week during experimentation.
as §2, §3

[3] = TCDD 27.5 μg/kg + UDCA 0.5 wt %
[4] = TCDD 110.0 μg/kg + UDCA 0.125 wt %
[5] = TCDD 110.0 μg/kg + UDCA 0.25 wt %
[6] = TCDD 110.0 μg/kg + UDCA 0.5 wt %

Structure (SMILES): C[C@H](CCC(=O)O)[C@H]1CC[C@H]2[C@@H]3[C@@H](O)C[C@@H]4C[C@H](O)CC[C@]4(C)[C@H]3CC[C@]12C [UDCA, 3α, 7β-dihydroxy-5β-cholanoic acid]
- Right kidney Relative weight (C57B1/6J mice [1]; [3]): 0.538 ± 0.045 %
- Right kidney Weight (C57B1/6J mice [1]; [3]): 0.119 ± 0.009 g
- Right testis Relative weight (C57B1/6J mice [1]; [3]): 0.301 ± 0.030 %
- Right testis Weight (C57B1/6J mice [1]; [3]): 0.067 ± 0.007 g
- Liver Relative weight (C57B1/6J mice [1]; [4]): 5.118%
- Liver Weight (C57B1/6J mice [1]; [4]): 0.8153 g
- Left epididymis Relative weight (C57B1/6J mice [1]; [5]): 0.122%
- Left epididymis Weight (C57B1/6J mice [1]; [5]): 0.0195 g
- Left kidney Relative weight (C57B1/6J mice [1]; [5]): 0.6711%
- Left kidney Weight (C57B1/6J mice [1]; [5]): 0.1069 g
- Left testis Relative weight (C57B1/6J mice [1]; [5]): 0.2153%
- Left testis Weight (C57B1/6J mice [1]; [5]): 0.343 g
- Liver Relative weight (C57B1/6J mice [1]; [5]): 8.600 ± 3.276%
- Liver Weight (C57B1/6J mice [1]; [5]): 1.379 ± 0.327 g
- Right epididymis Relative weight (C57B1/6J mice [1]; [5]): 0.080%
- Right epididymis Weight (C57B1/6J mice [1]; [5]): 0.0128 g
- Right kidney Relative weight (C57B1/6J mice [1]; [5]): 0.6045%
- Right kidney Weight (C57B1/6J mice [1]; [5]): 0.0963 g
- Right testis Relative weight (C57B1/6J mice [1]; [5]): 0.2279%
- Left epididymis Relative weight (C57B1/6J mice [1]; [6]): 0.114 ± 0.025%
- Left epididymis Weight (C57B1/6J mice [1]; [6]): 0.021 ± 0.007 g
- Left kidney Relative weight (C57B1/6J mice [1]; [6]): 0.704 ± 0.199%
- Left kidney Weight (C57B1/6J mice [1]; [6]): 0.121 ± 0.022 g
- Left testis Relative weight (C57B1/6J mice [1]; [6]): 0.316 ± 0.074%
- Left testis Weight (C57B1/6J mice [1]; [6]): 0.057 ± 0.019 g
- Right epididymis Relative weight (C57B1/6J mice [1]; [6]): 0.127 ± 0.024%
- Right epididymis Weight (C57B1/6J mice [1]; [6]): 0.024 ± 0.009 g
- Right kidney Relative weight (C57B1/6J mice [1]; [6]): 0.659 ± 0.133%
- Right kidney Weight (C57B1/6J mice [1]; [6]): 0.113 ± 0.010 g
- Right testis Relative weight (C57B1/6J mice [1]; [6]): 0.314 ± 0.067%
- Right testis Weight (C57B1/6J mice [1]; [6]): 0.057 ± 0.019 g
- water uptake (C57B1/6J mice [2]; TCDD 6.9 μg/kg + UDCA 0.125 wt %, 10 days): 4.54 ± 0.71
- water uptake (C57B1/6J mice [2]; TCDD 6.9 μg/kg + UDCA 0.125 wt %, 20 days): 3.75 ± 0.90
- water uptake (C57B1/6J mice [2]; TCDD 6.9 μg/kg + UDCA 0.125 wt %, 30 days): 4.00 ± 0.00
- water uptake (C57B1/6J mice [2]; TCDD 6.9 μg/kg + UDCA 0.125 wt %, 40 days): 4.00 ± 0.00
- water uptake (C57B1/6J mice [2]; TCDD 6.9 μg/kg + UDCA 0.125 wt %, 50 days): 4.06 ± 1.34
- water uptake (C57B1/6J mice [2]; TCDD 6.9 μg/kg + UDCA 0.125 wt %, 60 days): 4.64 ± 0.51
- water uptake (C57B1/6J mice [2]; TCDD 6.9 μg/kg + UDCA 0.25 wt %, 10 days): 4.27 ± 1.16
- water uptake (C57B1/6J mice [2]; TCDD 6.9 μg/kg + UDCA 0.25 wt %, 20 days): 3.83 ± 1.04
- water uptake (C57B1/6J mice [2]; TCDD 6.9 μg/kg + UDCA 0.25 wt %, 30 days): 4.00 ± 0.00
- water uptake (C57B1/6J mice [2]; TCDD 6.9 μg/kg + UDCA 0.25 wt %, 40 days): 3.60 ± 0.57
- water uptake (C57B1/6J mice [2]; TCDD 6.9 μg/kg + UDCA 0.25 wt %, 50 days): 4.28 ± 1.02
- water uptake (C57B1/6J mice [2]; TCDD 6.9 μg/kg + UDCA 0.25 wt %, 60 days): 4.69 ± 0.43
- water uptake (C57B1/6J mice [2]; TCDD 6.9 μg/kg + UDCA 0.5 wt %, 10 days): 4.12 ± 0.94
- water uptake (C57B1/6J mice [2]; TCDD 6.9 μg/kg + UDCA 0.5 wt %, 20 days): 3.80 ± 0.70
- water uptake (C57B1/6J mice [2]; TCDD 6.9 μg/kg + UDCA 0.5 wt %, 30 days): 4.00 ± 0.63
- water uptake (C57B1/6J mice [2]; TCDD 6.9 μg/kg + UDCA 0.5 wt %, 40 days): 3.78 ± 0.31
- water uptake (C57B1/6J mice [2]; TCDD 6.9 μg/kg + UDCA 0.5 wt %, 50 days): 4.35 ± 1.08
- water uptake (C57B1/6J mice [2]; TCDD 6.9 μg/kg + UDCA 0.5 wt %, 60 days): 5.06 ± 0.70
- water uptake (C57B1/6J mice [2]; TCDD 27.5 μg/kg + UDCA 0.125 wt %, 10 days): 3.67 ± 1.10
- water uptake (C57B1/6J mice [2]; TCDD 27.5 μg/kg + UDCA 0.125 wt %, 20 days): 3.92 ± 1.13
- water uptake (C57B1/6J mice [2]; TCDD 27.5 μg/kg + UDCA 0.125 wt %, 30 days): 4.30 ± 0.42
- water uptake (C57B1/6J mice [2]; TCDD 27.5 μg/kg + UDCA 0.125 wt %, 40 days): 4.20 ± 0.28
- water uptake (C57B1/6J mice [2]; TCDD 27.5 μg/kg + UDCA 0.125 wt %, 50 days): 4.44 ± 0.79
- water uptake (C57B1/6J mice [2]; TCDD 27.5 μg/kg + UDCA 0.125 wt %, 60 days): 4.81 ± 0.26
- water uptake (C57B1/6J mice [2]; TCDD 27.5 μg/kg + UDCA 0.25 wt %, 10 days): 4.04 ± 0.75
- water uptake (C57B1/6J mice [2]; TCDD 27.5 μg/kg + UDCA 0.25 wt %, 20 days): 3.92 ± 0.63
- water uptake (C57B1/6J mice [2]; TCDD 27.5 μg/kg + UDCA 0.25 wt %, 30 days): 4.00 ± 0.00
- water uptake (C57B1/6J mice [2]; TCDD 27.5 μg/kg + UDCA 0.25 wt %, 40 days): 4.00 ± 0.00
- water uptake (C57B1/6J mice [2]; TCDD 27.5 μg/kg + UDCA 0.25 wt %, 50 days): 4.44 ± 0.79
- water uptake (C57B1/6J mice [2]; TCDD 27.5 μg/kg + UDCA 0.25 wt %, 60 days): 4.81 ± 0.26
- water uptake (C57B1/6J mice [2]; TCDD 27.5 μg/kg + UDCA 0.5 wt %, 10 days): 3.91 ± 0.95
- water uptake (C57B1/6J mice [2]; TCDD 27.5 μg/kg + UDCA 0.5 wt %, 20 days): 4.35 ± 0.98
- water uptake (C57B1/6J mice [2]; TCDD 27.5 μg/kg + UDCA 0.5 wt %, 30 days): 4.44 ± 0.00
- water uptake (C57B1/6J mice [2]; TCDD 27.5 μg/kg + UDCA 0.5 wt %, 40 days): 4.44 ± 0.00
- water uptake (C57B1/6J mice [2]; TCDD 27.5 μg/kg + UDCA 0.5 wt %, 50 days): 4.41 ± 1.00
- water uptake (C57B1/6J mice [2]; TCDD 27.5 μg/kg + UDCA 0.5 wt %, 60 days): 4.88 ± 0.33
- water uptake (C57B1/6J mice [2]; TCDD 110.0 μg/kg + UDCA 0.125 wt %, 10 days): 4.03 ± 1.21
- water uptake (C57B1/6J mice [2]; TCDD 110.0 μg/kg + UDCA 0.125 wt %, 20 days): 4.07 ± 0.64
- water uptake (C57B1/6J mice [2]; TCDD 110.0 μg/kg + UDCA 0.125 wt %, 30 days): 3.33 ± 0.94
- water uptake (C57B1/6J mice [2]; TCDD 110.0 μg/kg + UDCA 0.25 wt %, 10 days): 3.79 ± 1.06
- water uptake (C57B1/6J mice [2]; TCDD 110.0 μg/kg + UDCA 0.25 wt %, 20 days): 3.83 ± 0.14
- water uptake (C57B1/6J mice [2]; TCDD 110.0 μg/kg + UDCA 0.25 wt %, 30 days): 4.67 ± 0.94
- water uptake (C57B1/6J mice [2]; TCDD 110.0 μg/kg + UDCA 0.25 wt %, 40 days): 4.14 ± 0.20
- water uptake (C57B1/6J mice [2]; TCDD 110.0 μg/kg + UDCA 0.5 wt %, 10 days): 3.75 ± 0.50
- water uptake (C57B1/6J mice [2]; TCDD 110.0 μg/kg + UDCA 0.5 wt %, 20 days): 3.42 ± 0.80
- water uptake (C57B1/6J mice [2]; TCDD 110.0 μg/kg + UDCA 0.5 wt %, 30 days): 4.20 ± 0.28
- water uptake (C57B1/6J mice [2]; TCDD 110.0 μg/kg + UDCA 0.5 wt %, 40 days): 3.50 ± 0.71
- water uptake (C57B1/6J mice [2]; TCDD 110.0 μg/kg + UDCA 0.5 wt %, 50 days): 3.14 ± 0.59
- water uptake (C57B1/6J mice [2]; TCDD 110.0 μg/kg + UDCA 0.5 wt %, 60 days): 3.32 ± 0.33
